Legend:
[1] = tested on: Hamster Tracheal Organ Culture (keratinization); assay: Reversal of keratinization in hamster tracheal organ culture; format: cell-based
Experimental: (§1) The ODC assay measures a compound's effect on the prevention of the induction of ODC. The tracheal organ culture assay measures a compound's ability to reverse keratinization.
The tracheal organ culture assay is carried out as follows. Tracheas are taken from hamsters that are in very early stages of vitamin A deficiency and placed in organ culture. At the time of culture, the animals are still gaining weight; the tracheal epithelium is generally low columnar or cuboidal, with only occasional patches of squamous metaplasia. Each trachea is opened from the larynx to the carina along the membranous dorsal wall and cultured in a serum-free medium (CMRL-1066; with crystalline bovine insulin, 0.1 μg/ml; hydrocortisone hemisuccinate, 0.1 μg/ml; glutamine, 2 mM; penicillin, 100 units/ml; and streptomycin,100 μg/ml, added). Cultures are gassed with 50% oxygen, 45% nitrogen, and 5% CO2. The culture dishes are rocked at 35.5-36.0 degrees to allow the tracheas contact with both gas and medium. All tracheas are grown in medium containing no retinoid for the first 3 days. At the end of 3 days, some tracheas are harvested; almost all of these tracheas have significant squamous metaplasia, and approximately 60% have keratinized lesions. The remaining tracheas are then divided into different groups which are treated with either: (1) retinoid dissolved in dimethylsulfoxide (final concentration of DMSO in culture medium is never greater than 0.1%) or (2) an equivalent amount of DMSO alone. Culture medium is changed three times a week, and all of the remaining tracheas are harvested at the end of 10 days in culture. Tracheas are fixed in 10% buffered formalin and embedded in paraffin. Cross sections of five micrometers are made through the mid-portion, stained with hematoxylin and eosin, and then scored with a microscope for the presence of keratin and keratohyaline granules, both of which are found in approximately 90% of control cultures that receive no retinoid for the entire 10 day culture period.

Ornithine Decarboxylase = assay: Inhibition of induction of ornithine decarboxylase (ODC) by 12-O-tetradecanoylphorbol-13-acetate in mouse skin; format: in vivo; conditions: topical, 1 hour before TPA (17 nmol)
Experimental: as §1
The ODC assay is carried out as follows. Female Charles River CD-1 mice from Charles River Breeding Laboratories, Wilmington, Mass., are used (age 7 to 9 weeks). The dorsal hair of the mice is shaved 1 to 2 days before testing, and only mice showing no hair regrowth are used. A single dose of 12-O-tetradecanoylphorbol-13-acetate (TPA) (10.5 μg, 17 nmol) in 0.2 mL of acetone is applied topically to the back of each mouse. The test compound, at one of three dose levels (1.7, 17, and 170 nmol), dissolved in 0.2 mL of acetone is applied 1 hour before the TPA treatment to the test groups; the control group is treated with acetone alone. The mice are killed by cervical dislocation five hours after TPA treatment. Determinations are done in triplicate.
The epidermis is obtained from the sacrificed animals. To obtain sufficient material, the dorsal skins from 2 to 3 mice in each treatment group are pooled. The depilatory agent Nudit® (Helena Rubinstein, New York) is applied to the shaved area of the skin; after 5 minutes, it is washed off thoroughly with cold tap water. Then the skin is excised and plunged immediately into ice-cold water; it is then placed in a 55° C. water bath for 30 seconds and reimmersed in ice-cold water for at least another 30 seconds. The skin is placed epidermis side up on a cold plate, and the epidermis is scraped off with a razor blade. The pooled epidermal sheets are homogenized (Polytron PT-10 homogenizer) at 0° to 4° C. for 15-20 seconds in 50 mM sodium phosphate buffer (pH 7.2) containing 0.1 mM pyridoxal phosphate and 0.1 mM ethylenediaminetetraacetic acid (EDTA), at a volume of 1 mL/skin.
The supernatant fraction remaining after centrifugation of the homogenate at 10,000×g for 30 seconds at 0° C. is used for the enzyme assay. Enzyme activity is determined using the microassay for ODC as described by Verma and Boutwell to measure the release of ^14 CO2 from DL-[1-^14 C]-ornithine (58 mCi/mmol) after incubation with the 10,000×g supernatant. The incubations are carried out by decanting, with a Pasteur pipette, 100 μL of the supernatant containing 100 to 120 μg of protein into two or three 15-mL Corex tubes in a shaking water bath at 37° C. The assay mixture in the tubes consists of 50 μL of 100 mM sodium phosphate buffer (pH 7.2), 10 μL of 4 mM pyridoxal phosphate, 40 μL of 25 mM dithiothreitol, and 1 μL of 0.1M EDTA. The center wells in the tubes are filled with 200 μL of a 2:1 solution (v/v) of ethanolamine:2-methoxyethanol. The reaction is started by adding 50 μL of substrate (0.5 μCi of DL-[1-^14 C]-ornithine in 2 mM cold ornithine) at 1-minute intervals by injection to each of the stoppered tubes. Incubations are routinely carried out at 37° C. for 30 to 60 minutes. The reaction is stopped by addition of 0.5 ml of 2M citric acid, and incubation is continued for an additional hour without heating to ensure complete absorption of ^14 CO2.
Radioactivity is measured using a toluene-based scintillant (4 g of PPO and 50 mg of POPOP/L of toluene) in a Beckman LS-250 liquid scintillation counter. Enzyme activity is determined in triplicate and expressed as nanomoles of CO2 released in 30 minutes per milligram of protein. Enzyme activity is linear for the protein concentration used. The protein concentrations of the epidermal extracts are determined by the Lowry procedure, using bovine serum albumin as the standard.

SMILES	Reversal of Keratinization, Active/Total Cultures ([1]; Conc 10^-8 M)	Reversal of Keratinization, Active/Total Cultures (%) ([1]; Conc 10^-8 M)	Reversal of Keratinization, Active/Total Cultures ([1]; Conc 10^-9 M)	Reversal of Keratinization, Active/Total Cultures (%) ([1]; Conc 10^-9 M)	Reversal of Keratinization, Active/Total Cultures ([1]; Conc 10^-10 M)	Reversal of Keratinization, Active/Total Cultures (%) ([1]; Conc 10^-10 M)	Reversal of Keratinization, Active/Total Cultures ([1]; Conc 10^-11 M)	Reversal of Keratinization, Active/Total Cultures (%) ([1]; Conc 10^-11 M)	Inhibition of Induction of Ornithine Decarboxylase by TPA, % Inhibition of Control (Ornithine Decarboxylase; Dose 1.7 nmol)	Inhibition of Induction of Ornithine Decarboxylase by TPA, % Inhibition of Control (Ornithine Decarboxylase; Dose 17 nmol)
CC1=C(/C=C/C(C)=C/C=C/C(C)=C/C(=O)OC[C@]2(CO)CO[C@@H](c3ccccc3)OC2)C(C)(C)CCC1 [Example 1 (Isomer (2)), (E)-2α-Phenyl-5α-hydroxymethyl-5β-retinoyloxymethyl-1,3-dioxane]	13/13	100%	17/18	94%	9/18	50%	2/6	33%	40%	49%
CC1=C(/C=C/C(C)=C/C=C/C(C)=C/C(=O)OC[C@]2(CO)CO[C@H](c3ccccc3)OC2)C(C)(C)CCC1 [Example 1 (Isomer (3)), (E)-2α-Phenyl-5β-hydroxymethyl-5α-retinoyloxymethyl-1,3-dioxane]	13/13	100%	18/18	100%	7/19	37%	2/6	33%	47%	57%
CC1=C(/C=C/C(C)=C/C=C/C(C)=C/C(=O)OCC(CO)(CO)CO)C(C)(C)CCC1 [Example 2, Pentaerythritol Monoretinoate]	13/13	100%	15/15	100%	18/25	72%	5/11	45%	35%	43%

Reference: patent US4464389A, “Esters of retinoic acid and pentaerythritol and monobenzal acetals thereof” (SRI International, priority 1982, dated 1984)
